Values after ≈ are worked out from the molar mass of the structure shown. Where two headings read alike, the source gives them in different places. Non-standard residues stand in square brackets, D forms with d. Residues, ends and D or L forms follow the SMILES beside them. *: point of attachment. Orn(α-tetramethylguanidino) = CN(C)C(=N[C@@H](CCCN)C(=O)*)N(C)C; Ac6c = NC1(C(=O)O)CCCCC1
What was measured:
C. neoformans KN99α = experiment: Antifungal activity assay (CFU on SAB agar); format: cell-based, Cryptococcus neoformans; settings: treatment 3 h, 30 °C, mean ± SD, n = 4; for cell count C. neoformans KN99α, 24 h: CFU counted after 24 h; for cell count C. neoformans KN99α, 48 h: CFU counted after 48 h
[1] = system: C. neoformans H99 (serotype A); settings: for MIC (μmol/L) H99 24 h: H99 (serotype A, 24 h)
[2] = system: C. neoformans strains 1841, H99, and KN99α; experiment: Antifungal activity assay (CFU); format: cell-based, Cryptococcus neoformans
C. neoformans H99 = experiment: Antifungal activity assay (CFU on SAB agar); format: cell-based, Cryptococcus neoformans; settings: treatment 3 h, 30 °C, mean ± SD, n = 4; for cell count C. neoformans H99, 24 h: CFU counted after 24 h; for cell count C. neoformans H99, 48 h: CFU counted after 48 h
C. neoformans 1841 [3] = experiment: Antifungal activity assay (CFU on SAB agar); format: cell-based, Cryptococcus neoformans; settings: treatment 3 h, 30 °C, mean ± SD, n = 4; for cell count C. neoformans 1841, 24 h: CFU counted after 24 h; for cell count C. neoformans 1841, 48 h: CFU counted after 48 h
[4] = system: C. neoformans strains 1841, H99, and KN99α; experiment: Broth microdilution assay (MIC); format: cell-based, Cryptococcus neoformans
C. neoformans 1841 [5] = experiment: Scanning electron microscopy, damaged cells; format: cell-based, Cryptococcus neoformans; settings: 200 μmol/L, 10^8 CFU/mL, 3 h, 30°C
Protocol: Overnight cultures of C. neoformans 1841 were prepared as described and adjusted with 50% SAB in phosphate buffer to reach 1 × 10^8 CFU/mL. Aqueous peptide solutions (20 μL) were added to the cell suspension (80 μL) to give a final peptide concentration of 200 μmol/L. Samples were incubated at 30°C on an orbital shaker (750 rpm) for 3 h. Samples were centrifuged (2,000 × g, 10 min, 4°C, Microfuge 22R, Beckmann Coulter), cell pellets were washed with ice-cold phosphate-buffered saline (PBS, 100 μL) and centrifuged again. Cell pellets were re-suspended in PBS (25 μL) and adhered overnight in humid atmosphere to glass coverslips (Borosilicate Glass, VWR International GmbH) previously coated with 0.001% poly-L-lysine (in case of Critical-Point Drying). Cells were fixed (2% glutaraldehyde, 2% paraformaldehyde, in PBS) for 60 min and afterwards stained with 1% OsO4 in PBS for 60 min. The cells were gradually dehydrated in ethanol series (30, 50, 70, 85, 90, 96% (once), and 100% (thrice) for 10 min. The coverslips were critical-point-dried (Baltec CPD 030, BAL-TEC GmbH, Schalksmühle, Germany) or air-dried after incubation with HMDS (3 min, RT) and sputter coated with 20 nm gold/palladium (Baltec MED 020, BAL-TEC GmbH). Cells were visualized using the SEM secondary electron detector (Zeiss EVO LS 15 LaB6, Carl Zeiss Microscopy Deutschland GmbH).
GraphPad Prism 10.0.3 software was used for statistical analysis of the recorded data. A Dunnett’s multiple comparisons test (Ordinary-one-way ANOVA) was performed.

[6] = system: C. neoformans 1841 (serotype D); settings: for MIC (μmol/L) 1841 24 h: 1841 (serotype D, 24 h, pH 7.5); for MIC (μmol/L) 1841 48 h: 1841 (serotype D, 48 h, pH 7.5)
[7] = system: C. neoformans KN99α (serotype A, mating type MATα); settings: for MIC (μmol/L) KN99α 24 h: KN99α (serotype A, mating type MATα, 24 h); for MIC (μmol/L) KN99α 48 h: KN99α (serotype A, mating type MATα, 48 h)
C. neoformans 1841 [8] = experiment: Time-kill assay; format: cell-based, Cryptococcus neoformans; settings: 2.5 μmol/L, 30°C, up to 24 h
Protocol: The kinetic effects of the antifungal activity were determined by diluting overnight cultures to 5 × 10^4 CFU/mL with 50% SAB in phosphate buffer. Aqueous peptide solutions (20 μL) were added to the cell suspension (80 μL) to give a final peptide concentration of 2.5 μmol/L. Samples were incubated at 30°C on an orbital shaker (750 rpm, Titramax 1,000, Heidolph Instruments GmbH & Co. KG) for 24 h. Before incubation (0 min) and after 45 min, 90 min, 3 h, 6 h, and 24 h incubation, aliquots (10 μL) of samples were taken and diluted with phosphate buffer (10 mmol/L, pH 7.5) to observe countable cell colonies. Aliquots (100 μL) of the diluted cell suspensions were plated on SAB agar plates. Plates were incubated at 30°C and colonies were counted after 24 h.

[9] = broth microdilution, 50% SAB in phosphate buffer, 30°C, read after 48 h, n = 6
[10] = broth microdilution, 50% SAB in phosphate buffer, 30°C, read after 24 h, n = 6

Row | Compound | cell count C. neoformans KN99α, 24 h (C. neoformans KN99α; 0.25 µmol/L) | cell count C. neoformans KN99α, 48 h (C. neoformans KN99α; 0.25 µmol/L) | cell count C. neoformans KN99α, 24 h (C. neoformans KN99α; 2.5 µmol/L) | cell count C. neoformans KN99α, 48 h (C. neoformans KN99α; 2.5 µmol/L) | cell count C. neoformans KN99α, 24 h (C. neoformans KN99α; 25 µmol/L) | cell count C. neoformans KN99α, 48 h (C. neoformans KN99α; 25 µmol/L) | MIC (μmol/L) H99 24 h [1] | MIC (μmol/L) H99 48 h ([1]; H99 (serotype A, 48 h)) | cell count C. neoformans H99, 24 h (C. neoformans H99; 0.25 µmol/L) | cell count C. neoformans H99, 48 h (C. neoformans H99; 0.25 µmol/L) | cell count C. neoformans H99, 24 h (C. neoformans H99; 2.5 µmol/L) | cell count C. neoformans H99, 48 h (C. neoformans H99; 2.5 µmol/L) | cell count C. neoformans H99, 24 h (C. neoformans H99; 25 µmol/L) | cell count C. neoformans H99, 48 h (C. neoformans H99; 25 µmol/L) | cell count C. neoformans 1841, 24 h (C. neoformans 1841 [3]; 0.25 µmol/L) | cell count C. neoformans 1841, 48 h (C. neoformans 1841 [3]; 0.25 µmol/L) | cell count C. neoformans 1841, 24 h (C. neoformans 1841 [3]; 2.5 µmol/L) | damaged cells in SEM (C. neoformans 1841 [5]) | MIC (μmol/L) 1841 48 h [6] | MIC (μmol/L) KN99α 48 h [7] | other results
1 | CC(C)C[C@H](NC(=O)[C@H](Cc1ccc(O)cc1)NC(=O)[C@@H]1CCCN1C(=O)[C@H](CCCNC(=N)N)NC(=O)[C@@H]1CCCN1C(=O)[C@H](CCCCN)NC(=O)[C@H](CC(=O)O)NC(=O)[C@@H]1CCCN1C(=O)[C@H](CCCNC(=N)N)NC(=O)C1(N)CCCCC1)C(=O)N1CCC[C@H]1C(=O)N[C@@H](CCCNC(=N)N)C(=O)N1CCC[C@H]1C(=O)N[C@@H](CCCNC(=N)N)C(=O)N1CCC[C@H]1C(=O)N1CCC[C@H]1C(=O)N[C@@H](CCCNC(=N)N)C(=O)N1CCC[C@H]1C(=O)N[C@H](C(=O)N[C@@H](CCCNC(=N)N)C(N)=O)C(C)C [Chex1Arg20] (H-[Ac6c]RPDKPRPYLPRPRPPRPVR-NH2; N-terminus assumed) | 2.7 ± 0.4 x 10^4 CFU/mL | 2.7 ± 0.4 x 10^4 CFU/mL | 1.0 ± 0.6 x 10^4 CFU/mL | 1.8 ± 1.2 x 10^4 CFU/mL | 0.5 ± 0.8 x 10^4 CFU/mL | 0.8 ± 0.9 x 10^4 CFU/mL | 1.6 µmol/L (≈ 3.96 µg/mL) | 1.6 to 3.2 µmol/L | 1.4 ± 0.7 x 10^4 CFU/mL | 1.6 ± 0.8 x 10^4 CFU/mL | 1.5 ± 1.0 x 10^4 CFU/mL | 2.5 ± 0.8 x 10^4 CFU/mL | 0.0 ± 0.0 x 10^4 CFU/mL | 0.8 ± 0.2 x 10^4 CFU/mL | 2.7 ± 0.0 x 10^4 CFU/mL | 2.8 ± 0.1 x 10^4 CFU/mL | 0.0 ± 0.0 x 10^4 CFU/mL | only a small portion showed deep indentations | 3.2 µmol/L (≈ 7.92 µg/mL) | 3.2 µmol/L (≈ 7.92 µg/mL) | MIC (mg/L) H99 48 h ([1]; H99 (serotype A, 48 h)): 4 to 8 mg/L; colony formation on agar ([2]; only small colonies appearing after more than 24 h): delayed colony formation; cell count C. neoformans 1841, 48 h (C. neoformans 1841 [3]; 2.5 µmol/L): 0.5 ± 0.1 x 10^4 CFU/mL; cell count C. neoformans 1841, 24 h (C. neoformans 1841 [3]; 25 µmol/L): 0.0 ± 0.0 x 10^4 CFU/mL; cell count C. neoformans 1841, 48 h (C. neoformans 1841 [3]; 25 µmol/L): 0.0 ± 0.0 x 10^4 CFU/mL; MIC [4]: 4 to 16 µg/mL; MIC (μmol/L) 1841 24 h [6]: 1.6 µmol/L (≈ 3.96 µg/mL); MIC (μmol/L) KN99α 24 h [7]: 1.6 µmol/L (≈ 3.96 µg/mL)
2 | CC[C@H](C)[C@H](NC(=O)[C@H](Cc1ccc(O)cc1)NC(=O)[C@@H](NC(=O)[C@@H]1CCCN1C(=O)[C@H](CCCNC(=N)N)NC(=O)[C@H](CC(N)=O)NC(=O)[C@H](CC(N)=O)NC(=O)[C@H](CCCN)N=C(N(C)C)N(C)C)C(C)C)C(=O)N1CCC[C@H]1C(=O)N[C@@H](CCCNC(=N)N)C(=O)N1CCC[C@H]1C(=O)N[C@@H](CCCNC(=N)N)C(=O)N1CCC[C@H]1C(=O)N1CCC[C@H]1C(=O)N[C@@H](Cc1c[nH]cn1)C(=O)N1CCC[C@H]1C(=O)N[C@@H](CCCNC(=N)N)C(=O)N[C@@H](CC(C)C)C(N)=O [Api88] ({Orn(α-tetramethylguanidino)}-NNRPVYIPRPRPPHPRL-NH2; N-terminus and C-terminus assumed) | 3.0 ± 0.7 x 10^4 CFU/mL | 3.1 ± 0.8 x 10^4 CFU/mL | 3.0 ± 0.6 x 10^4 CFU/mL | 3.1 ± 0.7 x 10^4 CFU/mL | 1.5 ± 0.2 x 10^4 CFU/mL | 1.6 ± 0.3 x 10^4 CFU/mL | 7.0 µmol/L (≈ 16 µg/mL) |  | 2.7 ± 0.4 x 10^4 CFU/mL | 2.8 ± 0.5 x 10^4 CFU/mL | 3.0 ± 0.2 x 10^4 CFU/mL | 3.3 ± 0.3 x 10^4 CFU/mL | 1.7 ± 0.2 x 10^4 CFU/mL | 2.0 ± 0.4 x 10^4 CFU/mL | 2.4 ± 0.1 x 10^4 CFU/mL | 2.4 ± 0.1 x 10^4 CFU/mL | 1.0 ± 0.1 x 10^4 CFU/mL | only a small portion showed deep indentations | 7.0 µmol/L (≈ 16 µg/mL) | 7.0 µmol/L (≈ 16 µg/mL) | MIC (mg/L) H99 48 h [1, 9]: 8 mg/L (≈ 3.49 µM); effect on CFU of C. neoformans strains H99 and KN99α ([2]; 2.5 μmol/L, 3 h incubation): did not significantly reduce the CFU; cell count C. neoformans 1841, 48 h (C. neoformans 1841 [3]; 2.5 µmol/L): 1.0 ± 0.1 x 10^4 CFU/mL; cell count C. neoformans 1841, 24 h (C. neoformans 1841 [3]; 25 µmol/L): 0.1 ± 0.0 x 10^4 CFU/mL; cell count C. neoformans 1841, 48 h (C. neoformans 1841 [3]; 25 µmol/L): 0.1 ± 0.0 x 10^4 CFU/mL; MIC at 48 h ([4]; 48 h, forward sequence compared with its scrambled sequence): 7.0 µM (≈ 16 µg/mL); MIC ([4]; strains 1841, H99, and KN99α, 24 h): ≥ 3.5 µM; MIC (mg/L) 1841 24 h [6, 10]: 8 mg/L (≈ 3.49 µM); MIC (mg/L) 1841 48 h [6, 9]: 16 mg/L (≈ 6.98 µM); MIC (mg/L) KN99α 24 h [7, 10]: 8 mg/L (≈ 3.49 µM); time-dependent antifungal effect (C. neoformans 1841 [8]): delayed antifungal effect
3 | CC(C)C[C@H](NC(=O)[C@@H]1CCCN1C(=O)[C@@H]1CCCN1C(=O)[C@H](CCCNC(=N)N)NC(=O)[C@H](Cc1ccc(O)cc1)NC(=O)[C@@H]1CCCN1C(=O)[C@@H]1CCCN1C(=O)[C@H](CCCNC(=N)N)NC(=O)C1(NC(=O)[C@H](CCCNC(=N)N)NC(=O)[C@@H]2CCCN2C(=O)[C@H](CCCCN)NC(=O)[C@@H]2CCCN2C(=O)[C@H](CCCNC(=N)N)NC(=O)[C@@H]2CCCN2C(=O)[C@H](CCCNC(=N)N)NC(=O)[C@@H](NC(=O)[C@H](CCCNC(=N)N)NC(=O)[C@@H](N)CC(=O)O)C(C)C)CCCCC1)C(=O)N1CCC[C@H]1C(N)=O [Chex1Arg20 scr] (H-DRVRPRPKPR[Ac6c]RPPYRPPLP-NH2; N-terminus assumed) |  |  |  |  |  |  | 26 µmol/L (≈ 64.4 µg/mL) | 52 µmol/L (≈ 129 µg/mL) |  |  |  |  |  |  |  |  |  | slightly lower percentage of damaged cells than Chex1Arg20 | 26 to 52 µmol/L | 52 µmol/L (≈ 129 µg/mL) | MIC (mg/L) 1841 24 h ([6]; 1841 (serotype D, 24 h)): 32 to 64 mg/L; MIC (μmol/L) 1841 24 h [6]: 13 to 26 µmol/L; MIC (mg/L) 1841 48 h ([6]; 1841 (serotype D, 48 h)): 64 to 128 mg/L; MIC (μmol/L) KN99α 24 h [7]: 26 µmol/L (≈ 64.4 µg/mL)
